# Measurements reported in patent EP2787958B1, “CHELIDONIUM MAJUS EXTRACTS AND THEIR USE IN THE TREATMENT OF SKIN DISORDERS AND PROMOTION OF SKIN REGENERATION” (priority 2011, dated 2013).
# Read-outs that look alike come from different tables or passages of the source.
# Legend:
# [1] = system: interleukin 1β (IL-1β); experiment: Inflammatory cytokines in cell supernatant (Mosaic ELISA microarray): IL-1β; type: cell-based, Human; settings: for IL-1β ng/(ml* No. of cells from photo) ± SD: 24 hours; for IL-1β production (effect in words): 1-10 µM
# Experimental: (§1) The inflammatory cytokines, CD40 ligand (CD40L), interferon γ (INF-γ), interleukin 1α (IL-1α), interleukin 1β (IL-1β), interleukin 6 (IL-6), interleukin 8 (IL-8), interleukin 17 (IL-17) and tumour necrosis factor α (TNF-α) were determined qualitatively and quantitatively. Each measurement was performed in duplicate using a Mosaic™ ELISA protein microarray assay system from R&D System in accordance with the supplier's instructions. Furthermore, with the aim of obtaining a correlation model between light signal intensity and cytokine concentration, a calibration curve using 6 concentrations was performed for each of them. Analysis of the data was performed using the dedicated Q-View™ Imager software package from Quansys Biosciences
# [2] = system: interleukin 6 (IL-6); experiment: Inflammatory cytokines in cell supernatant (Mosaic ELISA microarray): IL-6; type: cell-based, Human; settings: for IL-6 ng/(ml* No. of cells from photo) ± SD: 24 hours; for IL-6 production (effect in words): 1-10 µM
# Experimental: as §1
# [3] = Anti-radical activity (decay of the DPPH radical); type: biochemical; settings: for Anti-radical (skin protective): 24 hours
# Experimental: With regard to assays aimed at evaluating anti-radical activity, a chemical test was used where the decay of the diphenylpicrylhydrazyl (DPPH) radical is assessed in the absence or in the presence of the test substances. Indeed, the DPPH radical is used to test the ability of substances to act as free radical scavengers. DPPH in solution has a purple colour with a maximum absorbance peak at 517 nm which changes to yellow-colourless when this radical extracts a hydrogen atom from a radical scavenger to give rise to the reduced form DPPH-H. The assay has been conducted in quadruplicate in 96 well microplates (SARSTEDT Tissue Culture Plate 96-well flat bottom cell+). 50 µl of an ethanol solution of the test substance at 2X concentration and then 50 µl of a 200 µM solution of DPPH (MW 168,18, Aldrich 2,2-di(4-tert-octylphenyl)-1-picrylhydrazyl, free radical Lot# MKBF7574V Cat N° 257621-100 mg) have been added to each well of the microplate. A positive control consisting of 0.1 mM vitamin C and a negative control consisting of ethanol alone were included in each microplate. After 30 minutes from the addition of DPPH, photographs of the plates were taken (Canon PowerShot A610 5.0 Mpixels) and read spectrophotometrically at 530 nm.
# Based on the analysis of the results reported in Table 9, some substances were selected for further characterisation of their anti-radical activity. For the selected substances, dose-activity curves were obtained and the IC50 value were computed using a non-linear regression model with the Hill equation at variable slope. Such substances had been selected due to both their anti-radical potential and the easiness of their isolation/production. The selection of substances was made in view of cosmetics applications. Moreover their activity on human dermal fibroblasts (HDF) is expected to be useful also for the development of dermatological medications. The selected substances are discussed below.
# [4] = system: HDF cells; experiment: Summary of uses and toxic effects deduced from the cell assays (Table 1); type: cell-based, Human
# Experimental: Antiradical (skin protective): this is deduced from the free radical scavenger effects.
# Revitalizing: this is deduced from the increased mitochondrial dehydrogenase effect.
# Cytoprotective, with regard to oxidative damage (antioxidant, anti-inflammatory and anti-ageing): this is deduced from antagonising the stimulation of IL-1β and/or IL-6 induced by 100 µM H2O2 and from the absence of changes in cell morphology similar to the ones due to cell senescence.
# Wound healing: this is deduced from the effect of inhibiting the production of IL-1β and by the effect of stimulating cell proliferation under standard growth conditions.
# Cytotoxicity: this is deduced from the effect of reducing mitochondrial dehydrogenase activity or from the presence of morphologies characteristic of cell senescence.
# Irritation: this is deduced from the effect of increased production of IL-6 and/or IL-1β under standard growth conditions.
# Said uses in the fields of medicine and cosmetics or the toxic effects of the substances of the invention at a given dosage, for 24 hours, are summarized in Table 1 below.
# [5] = system: collagen produced by HDF cells; experiment: Quantity of collagen produced by the cells (elution of Sirius Red)
# [6] = system: Human dermal fibroblasts (HDF); experiment: Mitochondrial dehydrogenase activity (WST-1 formazan assay) in HDF cells; settings: for Revitalizing agent: 24 hours; for activity at 1 µM / activity at 7.3 µM: Homo sapiens, Fibroblast, read-out: % mitochondrial dehydrogenase activity ± SD
# Experimental: Human dermal fibroblasts were used for assay at the 3rd T75 passage.
# Mitochondrial dehydrogenase activity was measured in HDF, HEK and HUVEC cells by means of the formazan assay, using the WST-1 kit from Roche Diagnostic in accordance with the supplier's instructions. Briefly: the reagent was added (10 µl per well), the incubation was carried out for a further 2 hours or 4 hours, and, at the end of this time, the absorbance was read for 1 s at a wavelength of 450 nm in a Perkin Elmer Victor 2 Wallac microplate reader.
# The activity percentage (% mitochondrial dehydrogenase activity) is defined as: % mitochondrial dehydrogenase activity = ((absorbance of treated cells - absorbance of blank) / (absorbance of control - absorbance of blank)) x 100.
# The tests were performed with observations after 18 hours, seeding 8,000 cells per well, and after 42 hours, seeding 2,000 cells per well. Furthermore, in order to better analyze the dose/response curves for dihydroberberine, canadine and stylopine, curves were collected at 11 concentrations by seeding 2,000 cells per well with 46 hours incubation.
# Dose/response curves are plotted at 6 concentrations. The tests were performed with observations after 24 hours, seeding 8,000 cells per well.
# [7] = system: HDF cells; experiment: Evaluation of cell proliferation (counting of Sirius Red stained cells in photographs); settings: 24 hours
# [8] = Dose 1 µm (coptisine: 1 pm [sic])
# [9] = Dose 1 µm (coptisine: 1 pm [sic]), 24 hours
compound,measurement,setting,value
COc1ccc2c(c1OC)CN1CCc3cc4c(cc3C1=C2)OCO4 [dihydroberberine],IL-1β ng/(ml* No. of cells from photo) ± SD,"[1]; 1 µM, 34 ng/ml TGF-β1",99±10 ng/(ml* No. of cells from photo)
same,IL-1β ng/(ml* No. of cells from photo) ± SD,"[1]; 1 µM, 100 µM H2O2",164±1 ng/(ml* No. of cells from photo)
same,IL-1β ng/(ml* No. of cells from photo) ± SD,"[1]; 1 µM, Standard conditions",108±1 ng/(ml* No. of cells from photo)
same,IL-1β ng/(ml* No. of cells from photo) ± SD,"[1]; 7.3 µM, 34 ng/ml TGF-β1",129±1 ng/(ml* No. of cells from photo)
same,IL-1β ng/(ml* No. of cells from photo) ± SD,"[1]; 7.3 µM, 100 µM H2O2",212±18 ng/(ml* No. of cells from photo)
same,IL-1β ng/(ml* No. of cells from photo) ± SD,"[1]; 7.3 µM, Standard conditions",125±2 ng/(ml* No. of cells from photo)
same,IL-1β production (effect in words),[1]; 34 ng/ml TGF-β1,antagonizes the stimulation of IL-1β induced by 34 ng/ml TGF-β1
same,IL-1β production (effect in words),[1]; 100 µM H2O2,tendency to increase IL-1β production in a dose-dependent manner
same,IL-1β production (effect in words),[1]; standard conditions,tendency to increase IL-1β production in a dose-dependent manner
same,IL-6 ng/(ml* No. of cells from photo) ± SD,"[2]; 1 µM, 34 ng/ml TGF-β1",512±25 ng/(ml* No. of cells from photo)
same,IL-6 ng/(ml* No. of cells from photo) ± SD,"[2]; 1 µM, 100 µM H2O2",1328±2 ng/(ml* No. of cells from photo)
same,IL-6 ng/(ml* No. of cells from photo) ± SD,"[2]; 1 µM, Standard conditions",541±24 ng/(ml* No. of cells from photo)
same,IL-6 ng/(ml* No. of cells from photo) ± SD,"[2]; 7.3 µM, 34 ng/ml TGF-β1",704±60 ng/(ml* No. of cells from photo)
same,IL-6 ng/(ml* No. of cells from photo) ± SD,"[2]; 7.3 µM, 100 µM H2O2",1685±444 ng/(ml* No. of cells from photo)
same,IL-6 ng/(ml* No. of cells from photo) ± SD,"[2]; 7.3 µM, Standard conditions",534±39 ng/(ml* No. of cells from photo)
same,IL-6 production (effect in words),[2]; 34 ng/ml TGF-β1,tendency to antagonise the stimulation of IL-6 induced by TGF-β1
same,IL-6 production (effect in words),[2]; 100 µM H2O2,significant effects in modulating IL-6 production
same,IL-6 production (effect in words),[2]; standard conditions,significant effects in modulating IL-6 production
same,anti-radical effects (in words),[3]; 1 mM,shows anti-radical effects
same,% DPPH activity,"[3]; 1 mM, 30 minutes",55%
same,Anti-radical (skin protective),[3]; [8],Yes
same,Anti-radical (skin protective),[3]; Dose 7.3 µm,Yes
same,IC50,"[3]; anti-radical activity, Hill equation",62 µM
same,Cytotoxic,[4],No
same,"Anti-fibrotic (prevention of scar formation, also from acne)",[4]; [9],Yes (↓collagen)
same,"Cytoprotective (antioxidant, anti-inflammatory and anti-ageing; useful also in the treatment of acne)",[4]; [9],No
same,Wound-healing,[4]; [9],No
same,"Anti-fibrotic (prevention of scar formation, also from acne)","[4]; Dose 7.3 µm, 24 hours",Yes (↓collagen)
same,"Cytoprotective (antioxidant, anti-inflammatory and anti-ageing; useful also in the treatment of acne)","[4]; Dose 7.3 µm, 24 hours",No
same,Cytotoxic,"[4]; Dose 7.3 µm, 24 hours",No
same,Irritant,"[4]; Dose 7.3 µm, 24 hours","Yes (↑IL-6, ↑IL-1β)"
same,Wound-healing,"[4]; Dose 7.3 µm, 24 hours",No
same,concentrations at which toxic (irritant) effects are shown,[4]; exposure for 24 hours,greater than or equal to 1 µM
same,Irritant,"[4]; human, 24 h, 1 µm","Yes (↑IL-6, ↑IL-1β)"
same,collagen production (effect in words),"[5]; 1-10 µM (1 µM and 10 µM), 34 ng/ml TGF-β1",antagonizes the stimulation of collagen induced by 34 ng/ml TGF-β1
same,collagen production (effect in words),"[5]; 1-10 µM (1 µM and 10 µM), 100 µM H2O2",stimulates collagen production in a dose-dependent manner
same,collagen production (effect in words),"[5]; 1-10 µM, standard conditions",stimulates collagen production in a dose-dependent manner
same,concentrations below which no significant effects on mitochondrial dehydrogenase activity are shown,[6],below 0.1 µM
same,mitochondrial dehydrogenase activity (effect in words),[6]; 100 µM,reduced
same,mitochondrial dehydrogenase activity (effect in words),"[6]; 1 and 10 µM, 18 h and 42 h, more marked at 42 h",increased with respect to the control
same,Revitalizing agent,[6]; [8],Yes
same,Revitalizing agent,[6]; Dose 7.3 µm,Yes
same,activity at 1 µM,[6]; 18 h,131 ± 5.4%
same,activity at 7.3 µM,[6]; 18 h,128 ± 13.8%
same,activity at 1 µM,[6]; 42 h,143 ± 14.1%
same,activity at 7.3 µM,[6]; 42 h,137 ± 17.6%
same,activity at 1 µM,[6]; 46 h,121 ± 19.6%
same,activity at 7.3 µM,[6]; 46 h,192 ± 24.4%
same,mitochondrial dehydrogenase activity (effect in words),"[6]; fibroblast cells, higher doses",inhibit mitochondrial dehydrogenase activity
same,mitochondrial dehydrogenase activity (effect in words),"[6]; fibroblast cells, low dosage",stimulate mitochondrial dehydrogenase activity
same,No. of cells from photo ± SD,"[7]; 1 µM, 34 ng/ml TGF-β1",232±13
same,No. of cells from photo ± SD,"[7]; 1 µM, 100 µM H2O2",146±26
same,No. of cells from photo ± SD,"[7]; 1 µM, Standard conditions",160±18
same,No. of cells from photo ± SD,"[7]; 7.3 µM, 34 ng/ml TGF-β1",193±27
same,No. of cells from photo ± SD,"[7]; 7.3 µM, 100 µM H2O2",108±3
same,No. of cells from photo ± SD,"[7]; 7.3 µM, Standard conditions",129±13
"O=C1O[C@H]([C@@H](O)CO)C(O)=C1O [vitamin C, reference compound]",% DPPH activity,"[3]; 0.1 mM, positive control",0%
